Test results taken from patent US10662203B2, “Pyrido[2,3-b]indole compounds for the treatment and prophylaxis of bacterial infection” (Hoffmann-La Roche Inc., priority 2017, dated 2020).
In brackets after ≈: the same amount, converted by molar mass.

Columns and labels:
A. baumannii (ATCC17978) = assay: 50% growth inhibitory concentration (IC50) determination assay; format: cell-based; details: Acinetobacter baumannii, ATCC17978, A. baumannii ATCC17978; Iso-Sensitest broth; 0.098 = detection limit
Outline: (§1)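 Each strain, inoculated at ~5×10^5 CFU/mL in Iso-Sensitest broth, faces a two-fold compound series spanning 50 to 0.097 μM final concentration. Incubation proceeds at 35±2° C, and cell growth is tracked by absorbance at λ=600 nm every 20 minutes over 16 h.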

[1] = tested on: K. pneumoniae (ATCC10031); assay: as above; format: cell-based; details: Klebsiella pneumoniae, Iso-Sensitest broth, 0.098 = detection limit
Outline: as §1

S. aureus (ATCC29213) = assay: as above; format: cell-based; details: Staphylococcus aureus, Iso-Sensitest broth, 0.098 = detection limit
Outline: as §1

[2] = Lyophilisation solubility assay (LYSA); format: physicochemical; details: phosphate buffer, pH 6.5, aqueous buffer, thermodynamic from solid, 0.05 M phosphate buffer, HPLC-UV
Procedure: Lyophilisation Solubility Assay (LYSA):
The solubility of compounds of present invention was assessed by LYSA assay. Samples were prepared in duplicate from 10 mM DMSO stock solutions (20 μL) diluted in 30 μL pure DMSO. After evaporation of DMSO with a centrifugal vacuum evaporator, the residue was dissolved in 0.05 M phosphate buffer (150 μL, pH 6.5), which was stirred for one hour and shook for two hours. After one night, the solution was filtered using a microtiter filter plate. Then the filtrate and its 1/10 dilution were analyzed by HPLC-UV.

Structure (SMILES) | IC50 (A. baumannii (ATCC17978)) [µM] | IC50 [1] [µM] | IC50 (S. aureus (ATCC29213)) [µM] | solubility thermodynamic [2] [µg/mL]
CNc1cc(F)c(F)c2c1[nH]c1ncc(-c3cnc4c(c3)c(=O)c(C(=O)O)cn4C)c(N3CCC(N(C)CCO)C3)c12 (stereo not shown) [Example 1.200] | 0.57 | < 0.098 | 0.1 | 69 (≈ 119 µM)
CNc1cc(F)c(F)c2c1[nH]c1ncc(-c3cnc4c(c3)c(=O)c(C(=O)O)cn4NC)c(N3CC[C@@H]4C3CCN4C)c12 (stereo partly shown) [Example 1.249] | 0.272 | < 0.098 | < 0.098 | 487 (≈ 848 µM)
CNc1cc(F)cc2c1[nH]c1ncc(-c3cnc4c(c3)c(=O)c(C(=O)O)cn4NC)c(N3C[C@H]4CCN(C)[C@H]4C3)c12 [Example 3.17A] | 0.087 | < 0.098 | < 0.098 | 118 (≈ 212 µM)
CNc1cc(F)c(F)c2c1[nH]c1ncc(-c3cnc4c(c3)c(=O)c(C(=O)O)cn4COC)c(N3CC[C@H]4CN(C)C[C@H]43)c12 (relative stereo) [Example 5.06, 6-[4-[cis-5-methyl-2,3,3a,4,6,6a-hexahydropyrrolo[2,3-c]pyrrol-1-yl]-5,6-difluoro-8-(methylamino)-9H-pyrido[2,3-b]indol-3-yl]-1-(methoxymethyl)-4-oxo-1,8-naphthyridine-3-carboxylic acid] | 0.295 | < 0.098 | < 0.098 | 366 (≈ 621 µM)
CNc1cc(F)c(F)c2c1[nH]c1ncc(-c3cnc4c(c3)c(=O)c(C(=O)O)cn4C)c(N3CC[C@@H]4C3CCN4C)c12 (stereo partly shown) [Example 1.245] | 0.293 | < 0.098 | < 0.098 | 542 (≈ 969 µM)
CNc1cc(F)c(F)c2c1[nH]c1ncc(-c3cnc4c(c3)c(=O)c(C(=O)O)cn4NC)c(N3CCC(F)(CN(C)C)C3)c12 (stereo not shown) [Example 1.93] | 0.094 | < 0.098 | < 0.098 | 105 (≈ 177 µM)
CNc1cc(Cl)cc2c1[nH]c1ncc(-c3cnc4c(c3)c(=O)c(C(=O)O)cn4NC)c(N3CC[C@H]4CN(C)CC43)c12 (stereo partly shown) [Example 1.264] | 0.267 | < 0.098 | < 0.098 | 159 (≈ 277 µM)
CNc1cc(F)c(F)c2c1[nH]c1ncc(-c3cnc4c(c3)c(=O)c(C(=O)O)cn4C)c(N3CCC(N(C)CCOC)C3)c12 (stereo not shown) [Example 1.198] | 0.215 | < 0.098 | < 0.098 | 56 (≈ 94.7 µM)
CNc1cc(F)c(F)c2c1[nH]c1ncc(-c3cnc4c(c3)c(=O)c(C(=O)O)cn4C)c(N3CCCC(N(C)C)C3)c12 (stereo not shown) [Example 1.215] | 0.252 | 0.103 | 0.114 | 48 (≈ 85.5 µM)
CNc1cc(F)c(F)c2c1[nH]c1ncc(-c3cnc4c(c3)c(=O)c(C(=O)O)cn4C)c(N3C[C@@H](F)C[C@H]3CN(C)C)c12 [Example 7.01, 6-(4-((2S,4S)-2-((Dimethylamino)methyl)-4-fluoropyrrolidin-1-yl)-5,6-difluoro-8-(methylamino)-9H-pyrido[2,3-b]indol-3-yl)-1-methyl-4-oxo-1,4-dihydro-1,8-naphthyridine-3-carboxylic acid] | 0.28 | < 0.098 | < 0.098 | 330 (≈ 569 µM)
CNc1cc(F)c(F)c2c1[nH]c1ncc(-c3cnc4c(c3)c(=O)c(C(=O)O)cn4C)c(N3CCCC(N(C)CCO)C3)c12 (stereo not shown) [Example 1.201] | 0.852 | < 0.098 | 0.189 | 124 (≈ 210 µM)
CNc1cc(Cl)c(F)c2c1[nH]c1ncc(-c3cnc4c(c3)c(=O)c(C(=O)O)cn4NC)c(N3CC[C@H]4CN(C)CC43)c12 (stereo partly shown) [Example 1.266] | 0.066 | < 0.098 | < 0.098 | 241 (≈ 408 µM)
CNc1cc(F)c(F)c2c1[nH]c1ncc(-c3cnc4c(c3)c(=O)c(C(=O)O)cn4C)c(N3CC[C@@H]4C3CN4C)c12 (stereo partly shown) [Example 1.248] | 0.729 | < 0.098 | 0.199 | 222 (≈ 407 µM)
CNc1cc(F)c(F)c2c1[nH]c1ncc(-c3cnc4c(c3)c(=O)c(C(=O)O)cn4C)c(N3CC[C@H]4CN(C)C4C3)c12 (stereo partly shown) [Example 1.213] | 0.102 | < 0.098 | < 0.098 | 26 (≈ 46.5 µM)
CNc1cc(F)c(F)c2c1[nH]c1ncc(-c3cnc4c(c3)c(=O)c(C(=O)O)cn4C)c(N3CCCC(N(C)CCOC)C3)c12 (stereo not shown) [Example 1.197] | 0.245 | < 0.098 | < 0.098 | 407 (≈ 672 µM)
CNc1cc(F)cc2c1[nH]c1ncc(-c3cnc4c(c3)c(=O)c(C(=O)O)cn4C)c(N3C[C@H](C)[C@@H](N(C)C)C3)c12 [Example 1.152] | 0.305 | < 0.098 | < 0.098 | 49 (≈ 90.1 µM)
CNc1cc(F)c(F)c2c1[nH]c1ncc(-c3cnc4c(c3)c(=O)c(C(=O)O)cn4C)c(N3CCC4C3CCCN4C)c12 (stereo not shown) [Example 1.246] | 0.317 | < 0.098 | 0.193 | > 612

Structure (SMILES) | IC50 (A. baumannii (ATCC17978)) [µM] | IC50 [1] [µM] | IC50 (S. aureus (ATCC29213)) [µM] | solubility thermodynamic [2] [µg/mL]
CNc1cc(F)cc2c1[nH]c1ncc(-c3cnc4c(c3)c(=O)c(C(=O)O)cn4C)c(N3CC[C@H]4CCN(C)[C@H]4C3)c12 [Example 3.18A] | 0.081 | < 0.098 | < 0.098 | 172 (≈ 310 µM)
CNc1cc(F)c(F)c2c1[nH]c1ncc(-c3cnc4c(c3)c(=O)c(C(=O)O)cn4C)c(N3CC4CCCN(C)C4C3)c12 (stereo not shown) [Example 1.232] | 0.049 | < 0.098 | < 0.098 | 23 (≈ 40.1 µM)
CNc1cc(F)c(F)c2c1[nH]c1ncc(-c3cnc4c(c3)c(=O)c(C(=O)O)cn4C)c(N3CCC(O)(CN(C)C)C3)c12 (stereo not shown) [Example 1.100] | 0.9 | < 0.098 | 0.272 | 632 (≈ 1090 µM)
CNc1cc(F)c(F)c2c1[nH]c1ncc(-c3cnc4c(c3)c(=O)c(C(=O)O)cn4C(C)CO)c(N3CC[C@H]4CN(C)CC43)c12 (stereo partly shown) [Example 1.206] | 0.277 | < 0.098 | < 0.098 | 273 (≈ 452 µM)
CNc1cc(F)cc2c1[nH]c1ncc(-c3cnc4c(c3)c(=O)c(C(=O)O)cn4C)c(N3CCC4(C)CN(C)CC34)c12 (stereo not shown) [Example 1.272] | 0.112 | < 0.098 | < 0.098 | > 632
CNc1cc(F)cc2c1[nH]c1ncc(-c3cnc4c(c3)c(=O)c(C(=O)O)cn4NC)c(N3CC4[C@H](CCCN4C)C3)c12 (stereo partly shown) [Example 1.111] | 0.115 | < 0.098 | < 0.098 | 112 (≈ 196 µM)
CNc1cc(F)cc2c1[nH]c1ncc(-c3cnc4c(c3)c(=O)c(C(=O)O)cn4C)c(N3CC[C@H]4CCN(C)C4C3)c12 (stereo partly shown) [Example 1.211] | 0.11 | < 0.098 | < 0.098 | 205 (≈ 369 µM)
CNc1cc(F)cc2c1[nH]c1ncc(-c3cnc4c(c3)c(=O)c(C(=O)O)cn4C)c(N3CC[C@H](N(C)C)C3)c12 [Example 1.253] | 0.092 | < 0.098 | < 0.098 | 209 (≈ 395 µM)
CNc1cc(F)c(F)c2c1[nH]c1ncc(-c3cnc4c(c3)c(=O)c(C(=O)O)cn4NC)c(N3C[C@@H](O)[C@@H](N(C)C)C3)c12 [Example 1.224] | 0.621 | < 0.098 | 0.183 | 570 (≈ 985 µM)
CNc1cc(F)c(F)c2c1[nH]c1ncc(-c3cnc4c(c3)c(=O)c(C(=O)O)cn4C)c(N3CC4[C@H](CC[C@H]4N(C)C)C3)c12 (stereo partly shown) [Example 1.221] | 0.081 | < 0.098 | < 0.098 | 49 (≈ 83.4 µM)
CNc1cc(F)c(F)c2c1[nH]c1ncc(-c3cnc4c(c3)c(=O)c(C(=O)O)cn4C)c(N3CC[C@H]4CN(CCO)CC43)c12 (stereo partly shown) [Example 1.205] | 0.143 | < 0.098 | < 0.098 | 192 (≈ 326 µM)
CNc1cc(F)c(F)c2c1[nH]c1ncc(-c3cnc4c(c3)c(=O)c(C(=O)O)cn4C)c(N3CC4[C@@H](C3)CN4C)c12 (stereo partly shown) [Example 1.252] | 0.361 | < 0.098 | < 0.098 | 41 (≈ 75.2 µM)
CNc1cc(F)cc2c1[nH]c1ncc(-c3cnc4c(c3)c(=O)c(C(=O)O)cn4NC)c(N3C[C@@H]4OCCN(C)[C@@H]4C3)c12 [Example 3.23B] | 0.789 | < 0.098 | < 0.098 | 58 (≈ 101 µM)
CNc1cc(F)c(F)c2c1[nH]c1ncc(-c3cnc4c(c3)c(=O)c(C(=O)O)cn4C)c(N3CCC(C)(CN(C)C)C3)c12 (stereo not shown) [Example 1.101] | 0.15 | < 0.098 | < 0.098 | 214 (≈ 372 µM)
CNc1cc(F)c(F)c2c1[nH]c1ncc(-c3cnc4c(c3)c(=O)c(C(=O)O)cn4C)c(N3CCC4(CCCN(C)C4)C3)c12 (stereo not shown) [Example 1.190] | 0.143 | < 0.098 | 12.2 | 62 (≈ 106 µM)
CNc1cc(F)c(F)c2c1[nH]c1ncc(-c3cnc4c(c3)c(=O)c(C(=O)O)cn4NC)c(N3CCC4(CF)CN(C)CC34)c12 (stereo not shown) [Example 1.125] | 0.079 | < 0.098 | < 0.098 | 262 (≈ 432 µM)
CNc1cc(F)c(F)c2c1[nH]c1ncc(-c3cnc4c(c3)c(=O)c(C(=O)O)cn4C)c(N3CCC4(F)CN(C)CC34)c12 (stereo not shown) [Example 1.120] | 0.169 | < 0.098 | < 0.098 | 37 (≈ 64.1 µM)
